SMILES strings stand for the structures. Counter-ions that a name gives are not always drawn.

Consider six molecules from US20080070990A1, “USE OF RACTOPAMINE ENANTIOMERS” (STIRLING PRODUCTS LIMITED, priority 2006, published 2008).

The test system of one series is adrenergic beta-receptor. The note with it: cited from earlier work.
For series [1], the system named is rats. As to the kind of experiment: Neuropharmacological study in rats (Irwin test). The series is classed as in vivo. The note with it: for drug-related stress, Irwin test: rats, oral.
The subject of series [2] is mice. As to the kind of experiment: Stress testing in mice, methodology of Aberg (U.S. Pat. No. 6,372,799). The class given is in vivo. The note with it: preliminary results.
Series [3] relates to mice. As to the kind of experiment: Spontaneous motor activity studies in mice. The series is classed as in vivo. The note with it: oral.
The subject of the next series is livestock animals. As to the kind of experiment: Stress in livestock animals (applicant's findings). Conditions: in vivo.
The subject of another series is animals. Kind of series: Cardiovascular parameters in animals. The series is classed as in vivo. The note with it: concentrations corresponding to doses suitable for growth promotion.
In series [4] the test system is rats. Conditions: cited from earlier work.
The target in series [5] is adrenergic B3 (h) receptor (Homo sapiens, UniProt P13945). Kind of series: Affinity (Ki) for adrenergic β-receptors, β3. The class given is binding.
Chain of adrenergic B3 (h) receptor (P13945 whole entry): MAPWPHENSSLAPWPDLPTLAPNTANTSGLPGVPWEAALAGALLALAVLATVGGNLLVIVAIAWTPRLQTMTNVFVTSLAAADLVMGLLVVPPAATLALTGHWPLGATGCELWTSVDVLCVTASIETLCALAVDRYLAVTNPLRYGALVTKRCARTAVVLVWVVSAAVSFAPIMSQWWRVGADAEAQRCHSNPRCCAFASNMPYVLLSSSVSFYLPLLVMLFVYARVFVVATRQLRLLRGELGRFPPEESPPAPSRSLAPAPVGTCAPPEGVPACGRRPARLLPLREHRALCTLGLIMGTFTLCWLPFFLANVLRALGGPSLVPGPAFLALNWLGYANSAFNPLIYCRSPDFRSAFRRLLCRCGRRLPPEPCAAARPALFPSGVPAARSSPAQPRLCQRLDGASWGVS
A further series relates to pigs. Conditions: literature; cited from earlier work.
The target of series [6] is adrenergic β1(h) receptor (Homo sapiens, UniProt P08588). Kind of series: Affinity (Ki) for adrenergic β-receptors, β1. The class given is binding.
Chain of adrenergic β1(h) receptor (P08588 whole entry): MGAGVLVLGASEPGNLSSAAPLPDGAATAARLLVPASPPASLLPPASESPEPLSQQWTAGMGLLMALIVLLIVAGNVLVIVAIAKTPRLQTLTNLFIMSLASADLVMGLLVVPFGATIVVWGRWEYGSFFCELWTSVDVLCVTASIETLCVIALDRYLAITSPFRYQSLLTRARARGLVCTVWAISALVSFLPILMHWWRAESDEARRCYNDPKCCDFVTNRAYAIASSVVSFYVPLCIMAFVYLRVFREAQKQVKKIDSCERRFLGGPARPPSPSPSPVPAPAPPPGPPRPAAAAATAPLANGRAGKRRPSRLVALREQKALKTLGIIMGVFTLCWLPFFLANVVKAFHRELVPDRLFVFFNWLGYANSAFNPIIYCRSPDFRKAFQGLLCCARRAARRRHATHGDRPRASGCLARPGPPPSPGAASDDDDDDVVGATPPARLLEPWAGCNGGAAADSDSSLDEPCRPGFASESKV
Another series deals with obese animals. As to the kind of experiment: Weight loss in obese animals. The note with it: in vivo.
For series [7], the system named is adrenergic beta-receptors in adipose tissue. The note with it: animals exposed to racemic ractopamine; cited from earlier work.

Turning to `CC(CCc1ccc(O)cc1)NCC(O)c1ccc(O)cc1` (single isomer, unassigned) [RS-enantiomer], the “adrenergic beta-receptor stimulating activity” value in the series on adrenergic beta-receptor is recorded as “reduced beta-receptor activity when compared with RR-ractopamine”.

On to `C[C@H](CCc1ccc(O)cc1)NC[C@H](O)c1ccc(O)cc1.Cl` (racemic) [RR-ractopamine, RR 4-Hydroxy-a [[[3-(4-hydroxyphenyl)-1-methylpropyl]amino]methyl]benzenemethanol hydrochloride], for which, in the series on rats [1], the “drug-related stress, Irwin test” value is reported as “do not show signs of drug-related stress”. Further, in the series on mice [2], the “CNS-mediated stress, stress testing in mice” value is given as “not causing stress”. The “drug-related stress, spontaneous motor activity” value with mice [3] is listed as “no signs of drug-related stress”. In the series with livestock animals, the “stress as side effect in livestock animals” value is listed as “does not cause this side effect in livestock animals”. The “effects on cardiovascular parameters” value with animals was “failed to reveal detrimental effects on cardiovascular parameters”. In addition, in the series on rats [4], the “potency rank among the four stereoisomers in vivo” value was “most potent”.

Take `C[C@@H](CCc1ccc(O)cc1)NC[C@@H](O)c1ccc(O)cc1` (single isomer, unassigned) [SS-enantiomer]: the “adrenergic beta-receptor stimulating activity” value in the series with adrenergic beta-receptor is “completely devoid of adrenergic beta-receptor stimulating activity”.

For `CC(C)(C)NC[C@H](O)c1ccc(O)c(CO)c1` [R-salbutamol], the “affinity for beta-3 receptors (in words)” value in series [5] is “negligible affinity for beta-3 receptors”. In the series with rats [1] (laboratory animals), the “CNS-effects related to stress in laboratory animals” value is “not causing CNS-effects related to stress in laboratory animals”. In the series on pigs, the “stress in pigs / livestock animals” value is “does not induce stress in pigs”.

The Ki is the equilibrium dissociation constant of an inhibitor or competing ligand from its target. Higher therefore signals lower affinity. For the molecule `CC(CCc1ccc(O)cc1)NCC(O)c1ccc(O)cc1` (racemic) [Ractopamine, 4-hydroxy-a-[[[3-(4-hydroxyphenyl)-1-methylpropyl]amino]methyl]benzenemethanol hydrochloride], in series [6], the Ki came out at 0.26 µM. Moreover, in series [5], the inhibitory constant (Ki) was found to be 14 µM and the “affinity for beta-3 receptors (in words)” value is given as “negligible affinity for beta-3 receptors”. Also, the “drug-related stress, Irwin test” value in the series on rats [1] is given as “demonstrate stress”. Besides, the “drug-related stress, spontaneous motor activity” value in the series with mice [3] was “drug-related and CNS-mediated (“psychological”) stress”. The “weight loss in obese animals” value with obese animals is reported as “cause weight loss in obese animals”. For the same molecule, the “stress in pigs / livestock animals” value in the series on pigs was “cause stress in livestock animals”. Further, the “reduction of concentration of adrenergic beta-receptors in adipose tissue” value in [7] was 50%.

As to `C[C@H](CCc1ccc(O)cc1)NC[C@@H](O)c1ccc(O)cc1` (single isomer, unassigned) [SR-enantiomer], the “adrenergic beta-receptor stimulating activity” value in the series with adrenergic beta-receptor is reported as “reduced beta-receptor activity when compared with RR-ractopamine”.
